As usually defined, the pIC50 is −log10 of the IC50, conventionally taken in molar units.

Here are results for 15 compounds from patent publication US12331035B2, “Bicyclic compound and use thereof” (SK BIOPHARMACEUTICALS CO., LTD., priority 2019, dated 2025).

In assay [1] the test system is SDMA levels in the tumor. The experiment in a line: Test for in vivo target inhibitory activity (SDMA levels in U87MG tumor). Conditions: U87MG tumor cells implanted subcutaneously in nude mice, oral 25 or 50 mg/kg 1-2 times daily for one week. How it is done:
Test for In Vivo Target Inhibitory Activity
After U87MG tumor cells were implanted subcutaneously in nude mice, a PRMT5 inhibitor was administered orally (25 or 50 mg/kg) 1-2 times daily for one week, and then the degree to which SDMA levels in the tumor decreased was measured.
Reagents: Bradford's solution (Catalog No. 500-0006) was purchased from Bio-rad (USA). SDMA antibody (Catalog No. 13222s) was purchased from Cell Signaling Technology (USA). SmD3 antibody (Catalog No. ap12451a) was purchased from Abgent (USA), and secondary antibody (Catalog No. ab6721) and TMB substrate (Catalog No. ab210902) were purchased from Abcam (UK).
Experimental procedure: The tumor tissues transplanted into the mice were excised, the cells were lysed, and then quantified with Bradford's solution. 5-10 μg of protein per sample was diluted with carbonate-bicarbonate buffer and dispensed into a 96-well plate and reacted at room temperature for 2 hours. After washing with phosphate buffered saline (PBST) containing 0.05% Tween-20 3 times, 200 μL of PBST containing 5% bovine serum albumin (BSA-PBST) was added and reacted at room temperature for 2 hours. After washing with PBST 3 times, the SDMA antibody and the SmD3 antibody were diluted in BSA-PBST, and 100 μL of each was dispensed onto the plate and reacted at 4° C. overnight. After washing with PBST 3 times the next day, 100 μL of the secondary antibody diluted in BSA-PBST was added and reacted at room temperature for 1 hour. After washing with PBST 3 times, 100 μL of TMB substrate was added and reacted at room temperature for 10-20 minutes, and 100 μL of 1N sulfuric acid solution was added to terminate the reaction. Then, the absorbance at 450 nm was measured to calculate the degree of SDMA inhibition by the compound. (+++: more than 70%, ++: more than 30% and 70% or less, +: 30% or less)

Assay [2] has as its target T1, PRMT5-MEP50 enzyme complex (Homo sapiens, UniProt O14744).
T1 construct: purchased BPS Bioscience (USA) 51045
Nature of the assay: In vitro PRMT5 enzyme activity assay (methylation of histone H4 arginine H4R3, ELISA absorbance at 450 nm). In kind it is biochemical. The settings on record: S-adenosylmethionine, histone H4 peptide, 2 hours at room temperature, 8 points 10 μM to 0.128 nM. In a few lines: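 Human PRMT5-MEP50 (5 μg/mL working stock) with 2 μM SAM stock on histone H4 (1-20) peptide-coated plates, compound 8-point 1:5 series from 10 μM, 2 h at room temperature. H4R3 methylation detected by antibody/HRP ELISA, absorbance 450 nm; IC50 calculated.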
Background: In an ELISA, binding on a coated surface is turned into a signal by an enzyme label.

pIC50: −log10 of the molar value. Structures can show the parent of a compound that is named as a salt.

T1 sequence (O14744 2-637 limits assumed): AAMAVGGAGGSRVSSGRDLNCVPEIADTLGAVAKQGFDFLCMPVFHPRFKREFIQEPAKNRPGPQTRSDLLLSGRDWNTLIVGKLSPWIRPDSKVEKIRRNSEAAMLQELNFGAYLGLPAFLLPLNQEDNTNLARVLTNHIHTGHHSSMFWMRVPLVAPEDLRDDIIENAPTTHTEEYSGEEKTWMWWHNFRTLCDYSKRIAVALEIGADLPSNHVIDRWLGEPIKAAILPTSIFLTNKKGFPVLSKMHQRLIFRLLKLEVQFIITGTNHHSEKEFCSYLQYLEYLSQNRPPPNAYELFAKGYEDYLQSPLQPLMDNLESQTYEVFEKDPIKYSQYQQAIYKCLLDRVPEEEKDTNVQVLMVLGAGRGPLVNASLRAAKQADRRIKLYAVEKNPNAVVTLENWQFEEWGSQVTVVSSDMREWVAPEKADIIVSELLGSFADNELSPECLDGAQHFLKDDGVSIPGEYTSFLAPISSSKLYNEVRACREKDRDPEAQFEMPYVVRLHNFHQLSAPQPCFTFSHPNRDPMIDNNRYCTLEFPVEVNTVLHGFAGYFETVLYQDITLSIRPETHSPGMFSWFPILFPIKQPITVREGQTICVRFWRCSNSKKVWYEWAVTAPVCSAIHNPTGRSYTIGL
T1 sequence (Q9BQA1 2-342 partner limits assumed): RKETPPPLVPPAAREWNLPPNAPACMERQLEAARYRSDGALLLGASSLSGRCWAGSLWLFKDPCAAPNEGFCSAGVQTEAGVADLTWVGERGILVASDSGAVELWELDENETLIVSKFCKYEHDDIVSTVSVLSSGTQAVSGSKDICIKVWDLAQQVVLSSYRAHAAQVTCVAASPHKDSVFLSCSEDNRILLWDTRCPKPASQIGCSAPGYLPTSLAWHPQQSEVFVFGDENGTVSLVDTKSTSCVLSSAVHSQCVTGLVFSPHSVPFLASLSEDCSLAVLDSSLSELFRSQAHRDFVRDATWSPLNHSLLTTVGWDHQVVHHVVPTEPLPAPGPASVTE

For `O=C1c2ccc(N3CCOCC3)cc2CCN1C[C@H](O)CN1CCc2ccccc2C1` [Example 4, 2-[(2R)-3-(3,4-dihydro-1H-isoquinolin-2-yl)-2-hydroxy-propyl]-6-morpholino-3,4-dihydroisoquinoline-1-one], in assay [1], the SDMA inhibition result is “++ (++: more than 30% and 70% or less)”. Further, the pIC50 in assay [2] was 7.00 to 9.00.

Take `C[C@@H]1CN(c2ccc3c(c2)CCN(C[C@H](O)CN2CCc4ccccc4C2)C3=O)C[C@H](C)O1` [Example 14, 2-[(2R)-3-(3,4-dihydro-1H-isoquinolin-2-yl)-2-hydroxy-propyl]-6-[(2R,6S)-2,6-dimethylmorpholin-4-yl]-3,4-dihydroisoquinolin-1-one]: the SDMA inhibition result in assay [1] is “+++ (+++: more than 70%)”. Besides, in assay [2], the pIC50 was 6.00 to 7.00.

In the case of `O=CN1CCN(c2ccc3c(c2)CCN(C[C@H](O)CN2CCc4ccccc4C2)C3=O)CC1` [Example 87, 4-[2-[(2R)-3-(3,4-dihydro-1H-isoquinolin-2-yl)-2-hydroxy-propyl]-1-oxo-3,4-dihydroisoquinolin-6-yl]piperazine-1-carbaldehyde], in assay [1], the SDMA inhibition entry was “++ (++: more than 30% and 70% or less)”. Further, in assay [2], the pIC50 was 7.00 to 9.00.

For `CC1(C)CN(C[C@H](O)CN2CCc3ccccc3C2)C(=O)c2ccc(N3CCN(C=O)CC3)cc21` [Example 130, 4-[2-[(2R)-3-(3,4-dihydro-1H-isoquinolin-2-yl)-2-hydroxy-propyl]-4,4-dimethyl-1-oxo-3H-isoquinolin-6-yl]piperazine-1-carbaldehyde; hydrochloride], in assay [2], the negative-log IC50 (pIC50) is 5.00 to 6.00.

`CCN1CCC(Oc2ccc3c(c2)C(C)(C)CN(C[C@H](O)CN2CCc4ccccc4C2)C3=O)CC1` [Example 131, 2-[(2R)-3-(3,4-dihydro-1H-isoquinolin-2-yl)-2-hydroxy-propyl]-6-[(1-ethyl-4-piperidyl)oxy]-4,4-dimethyl-3H-isoquinolin-1-one] had a pIC50 in assay [2] of 7.00 to 9.00.

In the case of `O=C1c2ccc(N3CCOCC3)cc2C(F)(F)CN1C[C@H](O)CN1CCc2ccccc2C1` [Example 132, 2-[(2R)-3-(3,4-dihydro-1H-isoquinolin-2-yl)-2-hydroxy-propyl]-4,4-difluoro-6-morpholino-3H-isoquinolin-1-one], the pIC50 in assay [2] is 5.00 to 6.00.

The compound `CN1CCC(Oc2ccc3c(c2)CCN(C[C@H](O)CN2CCc4ccccc4C2)C3=O)C1` (stereo partly drawn) [Example 133, 2-[(2R)-3-(3,4-dihydro-1H-isoquinolin-2-yl)-2-hydroxy-propyl]-6-(1-methylpyrrolidin-3-yl)oxy-3,4-dihydroisoquinolin-1-one] gave a pIC50 in assay [2] of 7.00 to 9.00.

In turn, `CCN1CCC(Oc2ccc3c(c2)CCN(C[C@H](O)CN2CCc4ccccc4C2)C3=O)C1` (stereo partly drawn) [Example 134, 2-[(2R)-3-(3,4-dihydro-1H-isoquinolin-2-yl)-2-hydroxy-propyl]-6-(1-ethylpyrrolidin-3-yl)oxy-3,4-dihydroisoquinolin-1-one] had a pIC50 in assay [2] of 6.00 to 7.00.

As to `CN1CCC(Oc2ccc3c(c2)CCN(C[C@H](O)CN2CCc4ccccc4C2)C3=O)CC1` [Example 135, 2-[(2R)-3-(3,4-dihydro-1H-isoquinolin-2-yl)-2-hydroxy-propyl]-6-[(1-methyl-4-piperidyl)oxy]-3,4-dihydroisoquinolin-1-one], the SDMA inhibition entry in assay [1] is reported as “+++ (+++: more than 70%)”. This compound showed a pIC50 in assay [2] of 6.00 to 7.00.

As to `O=C1c2ccc(OC3CCN(C4COC4)CC3)cc2CCN1C[C@H](O)CN1CCc2ccccc2C1` [Example 136, 2-[(2R)-3-(3,4-dihydro-1H-isoquinolin-2-yl)-2-hydroxy-propyl]-6-[[1-(oxetan-3-yl)-4-piperidyl]oxy]-3,4-dihydroisoquinolin-1-one], the negative-log IC50 (pIC50) in assay [2] was 7.00 to 9.00.

`O=C1c2ccc(C#CCO)cc2CCN1C[C@H](O)CN1CCc2ccccc2C1` [Example 137, 2-[(2R)-3-(3,4-dihydro-1H-isoquinolin-2-yl)-2-hydroxypropyl]-6-(3-hydroxyprop-1-ynyl)-3,4-dihydroisoquinolin-1-one] had a pIC50 in assay [2] of 6.00 to 7.00.

In turn, `O=C1c2ccc(C#Cc3ccncc3)cc2CCN1C[C@H](O)CN1CCc2ccccc2C1` [Example 138, 2-[(2R)-3-(3,4-dihydro-1H-isoquinolin-2-yl)-2-hydroxypropyl]-6-[2-(4-pyridyl)ethynyl]-3,4-dihydroisoquinolin-1-one] gave a pIC50 in assay [2] of 6.00 to 7.00.

Compound `CN1CCCC(Oc2ccc3c(c2)CCN(C[C@H](O)CN2CCc4ccccc4C2)C3=O)C1` (stereo partly drawn) [Example 139, 2-[(2R)-3-(3,4-dihydro-1H-isoquinolin-2-yl)-2-hydroxypropyl]-6-[(1-methyl-3-piperidyl)oxy]-3,4-dihydroisoquinolin-1-one] had a pIC50 in assay [2] of 7.00 to 9.00.

Compound `O=C1c2ccc(OC3CCCN(CCF)C3)cc2CCN1C[C@H](O)CN1CCc2ccccc2C1` (stereo partly drawn) [Example 140, 2-[(2R)-3-(3,4-dihydro-1H-isoquinolin-2-yl)-2-hydroxypropyl]-6-[[1-(2-fluoroethyl)-3-piperidyl]oxy]-3,4-dihydroisoquinolin-1-one] had a pIC50 in assay [2] of 6.00 to 7.00.

Turning to `CN(C)CC#Cc1ccc2c(c1)CCN(C[C@H](O)CN1CCc3ccccc3C1)C2=O` [Example 141, 2-[(2R)-3-(3,4-dihydro-1H-isoquinolin-2-yl)-2-hydroxypropyl]-6-[3-(dimethylamino)prop-1-ynyl]-3,4-dihydroisoquinolin-1-one], the pIC50 in assay [2] was 6.00 to 7.00.
